Like-named read-outs stand apart in the source and are kept apart here.
How the values were obtained:
Format in all cases: in vivo
Phytophthora infestans = details: for Test D disease control rating (100 = 100% disease control, 0 = no disease control): tomato seedlings sprayed to run-off, inoculated the following day, rating relative to controls, unmarked compounds (standard test rate); for Test D disease control rating: tomato late blight
Pyricularia oryzae = details: for Test C disease control rating (100 = 100% disease control, 0 = no disease control): rice seedlings sprayed to run-off, inoculated the following day, rating relative to controls, unmarked compounds (standard test rate); for Test C disease control rating: rice blast
Botrytis cinerea = assay: Test E: gray mold, preventive spray on cucumber seedlings; details: for Test E disease control rating (100 = 100% disease control, 0 = no disease control): cucumber seedlings sprayed to run-off, inoculated the following day, rating relative to controls, unmarked compounds (standard test rate); for Test E disease control rating: gray mold on cucumber
In short: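 Compounds in 3% acetone were suspended with 250 ppm Trem 014 surfactant and sprayed to run-off on cucumber seedlings. B. cinerea spores were inoculated next day, then 48 h saturated humidity at 20° C and 5 days at 20° C. Disease control rated 0–100% versus controls.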

[1] = system: Eiysiphe graminis f. sp. tritici; assay: Test A: wheat powdery mildew, preventive spray on wheat seedlings; details: for Test A disease control rating (100 = 100% disease control, 0 = no disease control): wheat seedlings sprayed to run-off, inoculated the following day, rating relative to controls, unmarked compounds (standard test rate); for Test A disease control rating: wheat powdery mildew
In short: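 Compounds (3% acetone, 250 ppm Trem 014) sprayed to run-off on wheat seedlings, inoculated next day with spore dust. Incubated 7 days at 20° C before disease rating, 0–100% control relative to untreated controls.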

Puccinia recondita = assay: Test B: wheat leaf rust, preventive spray on wheat seedlings; details: for Test B disease control rating (100 = 100% disease control, 0 = no disease control): wheat seedlings sprayed to run-off, inoculated the following day, rating relative to controls, unmarked compounds (standard test rate); for Test B disease control rating: wheat leaf rust
In short: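 Wheat seedlings were sprayed to run-off with compound (3% acetone, 250 ppm Trem 014), then inoculated with P. recondita spores the next day. They were held 24 h saturated at 20 °C, then 6 days at 20 °C. Ratings are 0–100% disease control versus controls.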

[2] = 100 = 100% disease control, 0 = no control, unmarked entries (standard test concentration)
[3] = 100 = 100% disease control, 0 = no control relative to controls, unmarked entries (standard test concentration)

SMILES | Test D disease control rating (100 = 100% disease control, 0 = no disease control) (Phytophthora infestans) [%] | Test C disease control rating (100 = 100% disease control, 0 = no disease control) (Pyricularia oryzae) [%] | Test E disease control rating (100 = 100% disease control, 0 = no disease control) (Botrytis cinerea) [%] | Test A disease control rating (100 = 100% disease control, 0 = no disease control) [1] [%] | Test B disease control rating (100 = 100% disease control, 0 = no disease control) (Puccinia recondita) [%] | Test D disease control rating (Phytophthora infestans; [2]) [%] | Test C disease control rating (Pyricularia oryzae; [2]) [%] | Test E disease control rating (Botrytis cinerea; [2]) [%] | Test A disease control rating [1, 3] [%] | Test B disease control rating (Puccinia recondita; [2]) [%] | also measured
CCC1(C(=O)NC(C)COc2cc(Cl)c(Cl)cc2Cl)C(C)C1(Cl)Cl (stereo not shown) [compound 242] | 96 | 74 | 0 | 0 | 0 |  |  |  |  |  | 
CCC1(C(=O)NC(C)COc2c(Cl)cc(F)cc2Cl)C(C)C1(Cl)Cl (stereo not shown) [compound 251] | 0 | 94 | 0 | 0 | 0 |  |  |  |  |  | 
C[C@H](COc1ccc(F)cc1Br)NC(=O)C(C#N)C(C)(C)C (single isomer, unassigned) [165b] |  |  |  |  |  | 23 | 94 | 95 | 95 | 0 | 
Cc1c(Cl)cc(C#N)n1OCC(C)NC(=O)C(C#N)C(C)C(C)(C)C (mixture of isomers) [71b] |  |  |  |  |  |  |  |  |  |  | Test D disease control rating (Phytophthora infestans; tested at 100 ppm): 19%; Test C disease control rating (Pyricularia oryzae; tested at 100 ppm): 0%; Test E disease control rating (Botrytis cinerea; tested at 100 ppm): 0%; Test A disease control rating ([1]; tested at 100 ppm): 0%; Test B disease control rating (Puccinia recondita; tested at 100 ppm): 0%
CCc1ccccc1OCC(C)NC(=O)C1(CC)C(C)C1(Cl)Cl (mixture of isomers) [97a] |  |  |  |  |  |  |  |  |  |  | Test D disease control rating (Phytophthora infestans; tested at 40 ppm): 20%; Test C disease control rating (Pyricularia oryzae; tested at 40 ppm): 0%; Test E disease control rating (Botrytis cinerea; tested at 40 ppm): 0%; Test A disease control rating ([1]; tested at 40 ppm): 0%; Test B disease control rating (Puccinia recondita; tested at 40 ppm): 0%
CCC1(C(=O)NC(C)COc2ccccc2C#N)C(C)C1(Cl)Cl (mixture of isomers) [89a] |  |  |  |  |  | 20 | 74 | 0 | 0 | 0 | 
CC(COc1cc(F)ccc1Cl)NC(=O)C(C#N)C(C)(C)C (mixture of isomers) [191c] |  |  |  |  |  | 23 | 100 | 0 | 86 | 0 | 
CC(COc1ccc(F)cc1)NC(=O)C(C#N)C(C)(C)C (mixture of isomers) [4c] |  |  |  |  |  | 0 | 94 | 58 | 35 | 0 | 
CC(COc1c(F)cccc1C#N)NC(=O)C(C#N)C(C)C(C)(C)C (mixture of isomers) [compound 67] |  |  |  |  |  | 92 | 0 | 0 | 0 | 0 | 
CCC1(C(=O)NC(C)COc2ccc(F)cc2Br)C(C)C1(Cl)Cl (stereo not shown) [compound 124] |  |  |  |  |  |  |  |  |  |  | Test D disease control rating (Phytophthora infestans; tested at 40 ppm): 0%; Test C disease control rating (Pyricularia oryzae; tested at 40 ppm): 0%; Test E disease control rating (Botrytis cinerea; tested at 40 ppm): 0%; Test A disease control rating ([1]; tested at 40 ppm): 83%; Test B disease control rating (Puccinia recondita; tested at 40 ppm): 0%
CCC1(C(=O)NC(C)COc2ccccc2Cl)C(C)C1(Cl)Cl (mixture of isomers) [81a] |  |  |  |  |  | 0 | 0 | 55 | 0 | 0 | 
CCC1(C(=O)NC(C)COc2ccccc2Cl)C(C)C1(Cl)Cl (mixture of isomers) [81b] |  |  |  |  |  |  |  |  |  |  | Test D disease control rating (Phytophthora infestans; tested at 40 ppm): 0%; Test C disease control rating (Pyricularia oryzae; tested at 40 ppm): 74%; Test E disease control rating (Botrytis cinerea; tested at 40 ppm): 0%; Test A disease control rating ([1]; tested at 40 ppm): 85%; Test B disease control rating (Puccinia recondita; tested at 40 ppm): 0%
CC(C=Cc1cc(F)ccc1F)NC(=O)C(C#N)C(C)(C)C (single isomer, unassigned) [229a] | 0 | 100 | 55 | 0 | 0 |  |  |  |  |  | 
CC(COc1ccccc1Br)NC(=O)C(C#N)C(C)C(C)(C)C (mixture of isomers) [compound 59] |  |  |  |  |  |  |  |  |  |  | Test D disease control rating (Phytophthora infestans; tested at 40 ppm): 0%; Test C disease control rating (Pyricularia oryzae; tested at 40 ppm): 52%; Test E disease control rating (Botrytis cinerea; tested at 40 ppm): 0%; Test A disease control rating ([1]; tested at 40 ppm): 0%; Test B disease control rating (Puccinia recondita; tested at 40 ppm): 0%
CCC1(C(=O)NC(C)COc2ccccc2Br)C(C)C1(Cl)Cl (mixture of isomers) [84b] |  |  |  |  |  |  |  |  |  |  | Test D disease control rating (Phytophthora infestans; tested at 40 ppm): 75%; Test C disease control rating (Pyricularia oryzae; tested at 40 ppm): 73%; Test E disease control rating (Botrytis cinerea; tested at 40 ppm): 0%; Test A disease control rating ([1]; tested at 40 ppm): 57%; Test B disease control rating (Puccinia recondita; tested at 40 ppm): 28%
CCC1(C(=O)NC(C)COc2cc(I)ccc2C#N)C(C)C1(Cl)Cl (stereo not shown) [compound 247] | 0 | 85 | 0 | 53 | 0 |  |  |  |  |  | 
CC(COc1cccc(F)c1C#N)NC(=O)C(C#N)C(C)C(C)(C)C (mixture of isomers) [compound 63] |  |  |  |  |  | 2 | 0 | 0 | 0 | 0 | 
CCC1(C(=O)NC(C)C=Cc2cc(F)ccc2F)C(C)C1(Cl)Cl (stereo not shown) [267b] | 0 | 100 | 55 | 92 | 0 |  |  |  |  |  | 
CC(COc1cccc(C(F)(F)F)c1C#N)NC(=O)C(C#N)C(C)(C)C (mixture of isomers) [compound 47] |  |  |  |  |  | 52 | 53 | 0 | 0 | 0 | 
C#CC(C)(C)C(C#N)C(=O)NC(C)COc1cc(F)ccc1OC(F)F (mixture of isomers) [compound 295] | 0 | 100 | 0 | 0 | 0 |  |  |  |  |  | 
CC(COc1ccccc1OC(F)(F)C(F)F)NC(=O)C(C#N)C(C)(C)C (mixture of isomers) [compound 201] |  |  |  |  |  | 46 | 53 | 0 | 90 | 0 | 
CC(C)(C)C(C#N)C(=O)NC/C=C/c1cccc(Cl)c1 (racemic) [compound 180] |  |  |  |  |  | 76 | 74 | 0 | 61 | 0 | 
CCC1(C(=O)NC(C)COc2c(F)cc(F)cc2F)C(C)C1(Cl)Cl (stereo not shown) [compound 237] | 9 | 53 | 0 | 62 | 0 |  |  |  |  |  | 

— patent US6642392B1 (priority 1997, dated 2003)
